Here are results for 32 molecules from patent US9765037B2, “Compositions and methods for treating toxoplasmosis, cryptosporidiosis, and other apicomplexan protozoan related diseases” (University of Washington Through its Center for …, priority 2010, dated 2017).

One assay has as its target TgCDPK1 (Toxoplasma gondii, UniProt Q9BJF5). It counts as biochemical.
For the next assay, the target named is CpCDPK1 (Cryptosporidium parvum (strain Iowa II), UniProt A3FQ16). The assay can be described thus: biochemical. It counts as biochemical.
The mark [1] stands for this setting: Table 8, read-out: IC50 (μM) CpCDPK1.

Like-named read-outs stand apart in the source and are kept apart here.

TgCDPK1, sequence (Q9BJF5 1-507): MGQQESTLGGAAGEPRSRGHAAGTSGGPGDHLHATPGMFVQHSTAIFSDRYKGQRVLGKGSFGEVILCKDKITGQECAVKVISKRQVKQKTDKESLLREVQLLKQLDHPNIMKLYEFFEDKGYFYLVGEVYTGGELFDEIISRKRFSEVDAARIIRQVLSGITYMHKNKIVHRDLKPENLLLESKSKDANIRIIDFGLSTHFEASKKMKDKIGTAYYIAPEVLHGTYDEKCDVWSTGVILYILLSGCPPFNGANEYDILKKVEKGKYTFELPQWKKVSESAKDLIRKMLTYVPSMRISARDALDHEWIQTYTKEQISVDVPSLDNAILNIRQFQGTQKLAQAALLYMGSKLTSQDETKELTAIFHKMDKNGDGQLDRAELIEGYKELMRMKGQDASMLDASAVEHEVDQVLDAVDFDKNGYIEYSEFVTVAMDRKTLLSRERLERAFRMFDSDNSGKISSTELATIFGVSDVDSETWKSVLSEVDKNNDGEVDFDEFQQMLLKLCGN
CpCDPK1, sequence (A3FQ16 1-538): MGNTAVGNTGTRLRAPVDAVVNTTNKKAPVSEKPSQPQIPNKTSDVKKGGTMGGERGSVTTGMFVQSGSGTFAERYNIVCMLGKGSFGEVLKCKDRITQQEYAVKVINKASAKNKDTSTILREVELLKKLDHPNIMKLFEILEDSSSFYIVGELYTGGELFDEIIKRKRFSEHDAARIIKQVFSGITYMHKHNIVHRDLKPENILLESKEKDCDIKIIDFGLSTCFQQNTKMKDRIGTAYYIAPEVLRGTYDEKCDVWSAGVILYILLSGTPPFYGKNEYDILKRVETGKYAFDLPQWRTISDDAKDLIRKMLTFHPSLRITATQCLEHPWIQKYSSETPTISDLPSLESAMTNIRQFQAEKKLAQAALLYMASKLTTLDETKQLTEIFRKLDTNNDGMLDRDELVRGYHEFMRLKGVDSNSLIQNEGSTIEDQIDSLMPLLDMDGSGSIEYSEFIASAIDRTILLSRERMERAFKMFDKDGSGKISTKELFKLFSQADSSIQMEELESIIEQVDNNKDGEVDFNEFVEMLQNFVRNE

The IC50 is the concentration at which inhibition is half-maximal. As to `CC(C)n1nc(-c2cccc(Cl)c2)c2c(N)ncnc21` [Compound 7b, 3-(3-chlorophenyl)-1-isopropyl-1H-pyrazolo[3,4-d]pyrimidin-4-amine], the results for the IC50 at TgCDPK1 (read-out: IC50 (μM) TgCDPK1), at CpCDPK1 (setting [1]) and on CpCDPK1 (read-out: CpCDPK1 IC50) were 0.02 µM, 0.115 µM and 0.12 µM, respectively.

Consider `CC(C)n1nc(-c2cncnc2)c2c(N)ncnc21` [Compound 18, 1-isopropyl-3-(pyrimidin-5-yl)-1H-pyrazolo[3,4-d]pyrimidin-4-amine], for which the IC50 at TgCDPK1 (read-out: IC50 (μM) TgCDPK1) and at CpCDPK1 (setting [1]) was more than 3 µM in each case.

On to `Cn1nc(Cc2cccc3ccccc23)c2c(N)ncnc21` [Compound 5a, 1-methyl-3-(naphthalen-1-ylmethyl)-1H-pyrazolo[3,4-d]pyrimidin-4-amine], for which the results for the IC50 at TgCDPK1 (read-out: IC50 (μM) TgCDPK1) and on CpCDPK1 (read-out: IC50 (μM) CpCDPK1) were 0.458 µM and 0.413 µM, respectively.

For `CC(C)c1ccc(-c2nn(C(C)C)c3ncnc(N)c23)cc1` [Compound 7d, 1-isopropyl-3-(4-isopropylphenyl)-1H-pyrazolo[3,4-d]pyrimidin-4-amine], the IC50 at TgCDPK1 (read-out: IC50 (μM) TgCDPK1) was determined as 0.048 µM; at CpCDPK1 (setting [1]) it was 0.213 µM; at CpCDPK1 (read-out: CpCDPK1 IC50), 0.21 µM.

On to `CC(C)n1nc(-c2cccc3c2sc2ccccc23)c2c(N)ncnc21` [Compound 7x, 3-(dibenzo[b,d]thiophen-4-yl)-1-isopropyl-1H-pyrazolo[3,4-d]pyrimidin-4-amine], for which the IC50 on TgCDPK1 (read-out: IC50 (μM) TgCDPK1) is more than 3 µM; at TgCDPK1 (read-out: TgCDPK1 IC50) it was more than 3 µM; at CpCDPK1 (Table 4, average of three assays ± (SEM), read-out: CpCDPK1 IC50), more than 3 µM; at CpCDPK1 (setting [1]), more than 3 µM.

With `CC(C)n1nc(-c2ccc3c(c2)CCCO3)c2c(N)ncnc21` [Compound 7w, 3-(chroman-6-yl)-1-isopropyl-1H-pyrazolo[3,4-d]pyrimidin-4-amine], the concentration for half-maximal inhibition (IC50) was found to be 0.017 µM on TgCDPK1 (read-out: IC50 (μM) TgCDPK1) and 0.11 µM on CpCDPK1 (read-out: CpCDPK1 IC50).

With `CC(C)n1nc(-c2cccc3ccccc23)c2c(N)ncnc21` [Compound 7o, 1-isopropyl-3-(naphthalen-1-yl)-1H-pyrazolo[3,4-d]pyrimidin-4-amine], the IC50 is 0.326 µM on TgCDPK1 (read-out: IC50 (μM) TgCDPK1) and 0.62 µM on CpCDPK1 (read-out: CpCDPK1 IC50).

`Nc1ncnc2c1c(Cc1cccc3ccccc13)nn2C1CCCCC1` [Compound 5f, 1-cyclohexyl-3-(naphthalen-1-ylmethyl)-1H-pyrazolo[3,4-d]pyrimidin-4-amine]: the IC50 was 0.946 µM on TgCDPK1 (read-out: IC50 (μM) TgCDPK1) and 1 µM at TgCDPK1 (read-out: TgCDPK1 IC50).

For the molecule `CC(=O)N1CCC(Cn2nc(Cc3cccc4ccccc34)c3c(N)ncnc32)CC1` [Compound 5k, 1-(4-((4-amino-3-(naphthalen-1-ylmethyl)-1H-pyrazolo[3,4-d]pyrimidin-1-yl)methyl)piperidin-1-yl)ethanone], the 50% inhibitory concentration (IC50) at TgCDPK1 (read-out: IC50 (μM) TgCDPK1) is 0.208 µM; at CpCDPK1 (read-out: IC50 (μM) CpCDPK1) it was 0.36 µM.

`CS(=O)(=O)N1CCC(Cn2nc(Cc3cccc4ccccc34)c3c(N)ncnc32)CC1` [Compound 5q, 1-((1-(methylsulfonyl)piperidin-4-yl)methyl)-3-(naphthalen-1-ylmethyl)-1H-pyrazolo[3,4-d]pyrimidin-4-amine]: the values for the IC50 at TgCDPK1 (read-out: IC50 (μM) TgCDPK1), on CpCDPK1 (setting [1]) and on CpCDPK1 (read-out: CpCDPK1 IC50) were 0.563 µM, 0.691 µM and 0.7 µM, respectively.

As for `CC(C)n1nc(-c2cccc(Cc3ccccc3)c2)c2c(N)ncnc21` [Compound 7y, 3-(3-benzylphenyl)-1-isopropyl-1H-pyrazolo[3,4-d]pyrimidin-4-amine], the “inhibition of TgCDPK1 (in words)” value against TgCDPK1 is “neither kinase is inhibited”. Besides, on TgCDPK1 (read-out: IC50 (μM) TgCDPK1), the IC50 was found to be 0.322 µM.

Regarding `COc1cc(COc2cccc(-c3nn(C(C)C)c4ncnc(N)c34)c2)cc(OC)c1` [Compound 22, 3-(3-(3,5-dimethoxybenzyloxy)phenyl)-1-isopropyl-1H-pyrazolo[3,4-d]pyrimidin-4-amine], the results for the half-inhibitory concentration (IC50) on TgCDPK1 (read-out: IC50 (μM) TgCDPK1) and at CpCDPK1 (setting [1]) were 1.14 µM and more than 3 µM, respectively.

With `Cc1ccc(-c2nn(C(C)C)c3ncnc(N)c23)cc1C` [Compound 7h, 3-(3,4-dimethylphenyl)-1-isopropyl-1H-pyrazolo[3,4-d]pyrimidin-4-amine], the figures for the IC50 on TgCDPK1 (read-out: IC50 (μM) TgCDPK1) and at CpCDPK1 (read-out: CpCDPK1 IC50) were 0.009 µM and 0.022 µM, respectively.

Regarding `COc1cc2ccccc2cc1-c1nn(C(C)C)c2ncnc(N)c12` [Compound 7s, 1-isopropyl-3-(3-methoxynaphthalen-2-yl)-1H-pyrazolo[3,4-d]pyrimidin-4-amine], the IC50 on TgCDPK1 (read-out: IC50 (μM) TgCDPK1) stood at 0.863 µM; at TgCDPK1 (read-out: TgCDPK1 IC50) it was 0.9 µM; on CpCDPK1 (setting [1]) it was 0.591 µM; at CpCDPK1 (read-out: CpCDPK1 IC50) it was 0.6 µM.

For `CC(C)n1nc(-c2cccnc2)c2c(N)ncnc21` [Compound 16, 1-isopropyl-3-(pyridin-3-yl)-1H-pyrazolo[3,4-d]pyrimidin-4-amine], the IC50 on TgCDPK1 (read-out: IC50 (μM) TgCDPK1) was 0.961 µM; on CpCDPK1 (setting [1]), more than 3 µM.

`CC(=O)N1CCC(n2nc(Cc3cccc4ccccc34)c3c(N)ncnc32)CC1` [Compound 5j, 1-(4-(4-amino-3-(naphthalen-1-ylmethyl)-1H-pyrazolo[3,4-d]pyrimidin-1-yl)piperidin-1-yl)ethanone]: the IC50 on TgCDPK1 (read-out: IC50 (μM) TgCDPK1) turned out to be 0.091 µM; on CpCDPK1 (setting [1]), 0.103 µM; on CpCDPK1 (read-out: CpCDPK1 IC50) it was 0.1 µM.

Turning to `CC(C)n1nc(-c2ccnc(Cl)c2)c2c(N)ncnc21` [Compound 19, 3-(2-chloropyridin-4-yl)-1-isopropyl-1H-pyrazolo[3,4-d]pyrimidin-4-amine], the IC50 is 0.0638 µM on TgCDPK1 (read-out: IC50 (μM) TgCDPK1) and 0.37 µM on CpCDPK1 (setting [1]).

As for `C#CCn1nc(Cc2cccc3ccccc23)c2c(N)ncnc21` [Compound 5b, 3-(naphthalen-1-ylmethyl)-1-(prop-2-ynyl)-1H-pyrazolo[3,4-d]pyrimidin-4-amine], the IC50 at TgCDPK1 (read-out: IC50 (μM) TgCDPK1) came to 0.086 µM; on CpCDPK1 (read-out: CpCDPK1 IC50) it was 0.13 µM.

Regarding `COc1ccc(-c2nn(C(C)C)c3ncnc(N)c23)cc1OC(C)C` [Compound 23, 3-(3-isopropoxy-4-methoxyphenyl)-1-isopropyl-1H-pyrazolo[3,4-d]pyrimidin-4-amine], the IC50 at TgCDPK1 (read-out: IC50 (μM) TgCDPK1) and on CpCDPK1 (setting [1]) was more than 3 µM in each case.

With `Nc1ncnc2c1c(Cc1cccc3ccccc13)nn2C1CCCC1` [Compound 13, 1-cyclopentyl-3-(naphthalen-1-ylmethyl)-1H-pyrazolo[3,4-d]pyrimidin-4-amine], the IC50 amounted to 0.553 µM on TgCDPK1 (read-out: IC50 (μM) TgCDPK1) and 0.894 µM on CpCDPK1 (setting [1]).

With `CS(=O)(=O)N1CCC(CCn2nc(Cc3cccc4ccccc34)c3c(N)ncnc32)CC1` [Compound 5r, 1-(2-(1-(methylsulfonyl)piperidin-4-yl)ethyl)-3-(naphthalen-1-ylmethyl)-1H-pyrazolo[3,4-d]pyrimidin-4-amine], the results for the IC50 on TgCDPK1 (read-out: IC50 (μM) TgCDPK1), at CpCDPK1 (setting [1]) and on CpCDPK1 (read-out: CpCDPK1 IC50) were 0.117 µM, 0.194 µM and 0.2 µM, respectively.

Take `CC(C)n1nc(-c2cccc(OCc3ccccc3Cl)c2)c2c(N)ncnc21` [Compound 21, 3-(3-(2-chlorobenzyloxy)phenyl)-1-isopropyl-1H-pyrazolo[3,4-d]pyrimidin-4-amine]: the IC50 on TgCDPK1 (read-out: IC50 (μM) TgCDPK1) and at CpCDPK1 (setting [1]) was more than 3 µM throughout.

For `Nc1ncnc2c1c(Cc1cccc3ccccc13)nn2Cc1c[nH]cn1` [Compound 31, 1-((1H-imidazol-4-yl)methyl)-3-(naphthalen-1-ylmethyl)-1H-pyrazolo[3,4-d]pyrimidin-4-amine], the IC50 amounted to 0.117 µM on TgCDPK1 (read-out: IC50 (μM) TgCDPK1) and 0.0936 µM at CpCDPK1 (setting [1]).

For the molecule `CC(C)n1nc(-c2cccc(-c3ccccc3)c2)c2c(N)ncnc21` [Compound 7z, 3-(biphenyl-3-yl)-1-isopropyl-1H-pyrazolo[3,4-d]pyrimidin-4-amine], on TgCDPK1, the “inhibition of TgCDPK1 (in words)” value is “neither kinase is inhibited”. Further, on TgCDPK1 (read-out: IC50 (μM) TgCDPK1), the IC50 was 2.23 µM.

Regarding `Cc1ccc(-c2nn(C(C)C)c3ncnc(N)c23)cc1` [Compound 7f, 1-isopropyl-3-p-tolyl-1H-pyrazolo[3,4-d]pyrimidin-4-amine], the IC50 is 0.013 µM on TgCDPK1 (read-out: IC50 (μM) TgCDPK1) and 0.087 µM on CpCDPK1 (read-out: IC50 (μM) CpCDPK1).

Consider `Nc1ncnc2c1c(Cc1cccc3ccccc13)nn2Cc1ccccc1` [Compound 5e, 1-benzyl-3-(naphthalen-1-ylmethyl)-1H-pyrazolo[3,4-d]pyrimidin-4-amine], for which the IC50 on TgCDPK1 (read-out: IC50 (μM) TgCDPK1) is 1.85 µM; at CpCDPK1 (Table 3, average of three assays ± (SEM), read-out: CpCDPK1 IC50) it was more than 3 µM; on CpCDPK1 (setting [1]) it was more than 3 µM.

With `Cc1cc(-c2nn(C(C)C)c3ncnc(N)c23)ccc1F` [Compound 7i, 3-(4-fluoro-3-methylphenyl)-1-isopropyl-1H-pyrazolo[3,4-d]pyrimidin-4-amine], the IC50 on TgCDPK1 (read-out: IC50 (μM) TgCDPK1) was determined as 0.009 µM; at CpCDPK1 (read-out: IC50 (μM) CpCDPK1), 0.053 µM.

Consider `NC(=O)Cn1nc(Cc2cccc3ccccc23)c2c(N)ncnc21` [Compound 5c, 2-(4-amino-3-(naphthalen-1-ylmethyl)-1H-pyrazolo[3,4-d]pyrimidin-1-yl)acetamide], for which the IC50 on TgCDPK1 (read-out: IC50 (μM) TgCDPK1) is 1.92 µM; at CpCDPK1 (setting [1]), 2.04 µM; on CpCDPK1 (read-out: CpCDPK1 IC50), 2 µM.

As to `CC(=O)N1CCC(CCn2nc(Cc3cccc4ccccc34)c3c(N)ncnc32)CC1` [Compound 5l, 1-(4-(2-(4-amino-3-(naphthalen-1-ylmethyl)-1H-pyrazolo[3,4-d]pyrimidin-1-yl)ethyl)piperidin-1-yl)ethanone], the IC50 on TgCDPK1 (read-out: IC50 (μM) TgCDPK1) was 0.104 µM; at CpCDPK1 (read-out: IC50 (μM) CpCDPK1) it was 0.179 µM.

Regarding `CC(C)n1nc(-c2cccc(OCc3ccccc3)c2)c2c(N)ncnc21` [Compound 7aa, 3-(3-(benzyloxy)phenyl)-1-isopropyl-1H-pyrazolo[3,4-d]pyrimidin-4-amine], at TgCDPK1, the “inhibition of TgCDPK1 (in words)” value is on record as “neither kinase is inhibited”. For the same molecule, the IC50 at TgCDPK1 (read-out: IC50 (μM) TgCDPK1) amounted to 1.06 µM.

Take `CC(C)n1nc(Cc2ccc3ccccc3c2)c2c(N)ncnc21` [Compound 14, 1-isopropyl-3-(naphthalen-2-ylmethyl)-1H-pyrazolo[3,4-d]pyrimidin-4-amine]: the IC50 came out at 0.627 µM on TgCDPK1 (read-out: IC50 (μM) TgCDPK1) and 0.953 µM on CpCDPK1 (setting [1]).

For the molecule `Nc1ncnc2c1c(Cc1cccc3ccccc13)nn2C1CCOCC1` [Compound 15, 3-(naphthalen-1-ylmethyl)-1-(tetrahydro-2H-pyran-4-yl)-1H-pyrazolo[3,4-d]pyrimidin-4-amine], the 50% inhibitory concentration (IC50) on TgCDPK1 (read-out: IC50 (μM) TgCDPK1) was determined as 0.149 µM; on CpCDPK1 (setting [1]), 0.265 µM.
